Experimental data from patent US20230277553A1, “THERAPEUTIC COMPOSITION OF CURE-PRO COMPOUNDS FOR TARGETED DEGRADATION OF BET DOMAIN PROTEINS, AND METHODS OF MAKING AND USAGE” (CORNELL UNIVERSITY, priority 2020, published 2023).
“Also recorded” adds a separate entry of the source.

Legend:
Format in all cases: cell-based
BRD4 [1] = target: T1, BRD4 (Homo sapiens, UniProt O60885); assay: CURE-PRO-mediated BRD4 degradation with MDM2 ligands, WES (ProteinSimple), HCT116 cells; parameters: endogenous in cells; settings: HCT116, 24 h, WES; for BRD4 degradation, in combination with MDM2 ligand 8310: 1:1 with 8310, 10 μM; for BRD4 degradation, in combination with MDM2 ligand 8312: 1:1 with 8312, 10 μM
Experimental: All cell lines were purchased from ATCC or DSMZ and grown at 37° C. with 5% CO2. Human HeLa cells were cultured in complete growth medium (Dulbecco's modified Eagle's medium (DMEM) supplemented with 10% FBS); MCF7 cells were cultured in complete growth medium (Dulbecco's modified Eagle's medium (DMEM) supplemented with 10% FBS and 0.01 mg/ml human recombinant insulin (Sigma Aldrich); Namalwa and MOLM-13 cells were cultured in complete growth medium (RPMI 1640 medium supplemented with 10% FBS); MV-4-11 were cultured in complete growth medium (Iscove's Modified Dulbecco's medium, supplemented with 10% FBS); HCT116 cells were cultured in complete growth medium (McCoy's 5a Medium supplemented with 10% FBS). For cellular degradation of BRD4 studies, cells were seeded in a 12-well plate at 70-80% confluency, allowed to attach overnight, and incubated with the indicated compounds for the indicated time. When indicated, a 15-minute pretreatment with 10 μM pomalidomide, 10 μM VHL298, 10 μM Nutlin3a, 1 μM MG-132 or 1 μM Carfilzomib was performed before the addition of CURE-PROs. For washout studies, after CURE-PRO treatment, media was aspirated and incubated with complete medium for the indicated time before lysis.
WES Simple analysis was performed on WES system (ProteinSimple-Biotechne) according to the manufacturer's instructions. Total protein concentrations of cell lysates were determined by the Pierce BCA kit (Thermo Fisher). 3 μL of 0.3 μg/μL of the protein lysate was loaded onto a 12- to 230-kDa WES assay plate (ProteinSimple) where 300 nL sample was withdrawn through a capillary, subjected to electrophoretic separation of proteins by size, and followed by the simultaneous, HRP-based detection of proteins using the Anti-Rabbit Detection Module (Proteinsimple: #DM-001). The electropherograms were checked then the automatic peak detection was manually corrected if it was required.
(§1) HCT116 cells (3×10^6) were treated for 24 hours with the compounds solubilized in DMSO. Compounds were added at 1 μM-10 μM each. Standardized protein samples were electrophoresed and imaged as described in the WES ProteinSimple section above. FIGS. 59, 60, and 61 depict the concentration-dependence of CURE-PRO-mediated BRD4 degradation using MDM2 ligands.
as §1, with “62” for “59, 60,”, “63” for “61”
HCT116 cells (3×10^6) were treated for 24 hours with the compounds solubilized in DMSO. CURE-PRO monomers were added at 10 μM each and the proteasomal inhibitors at 1 μM. Standardized protein samples were electrophoresed and imaged as described in the WES ProteinSimple section above. FIG. 68 depicts the dependence of the proteasome for CURE-PRO-mediated BRD4 degradation.

BRD4 [2] = target: T1, BRD4; assay: Summary of BRD4 degradation by CURE-PRO pairs, estimated from Western Blot or WES (Proteinsimple); parameters: endogenous in cells; settings: for Degradation of BRD4 in combination with MDM2 ligand [drawing 423] / Degradation of BRD4 in combination with MDM2 ligand [drawing 424]: Table 5, aryl-boronic acid-containing MDM2 ligand; for Degradation of BRD4 in combination with MDM2 ligand [drawing 423]: first drawing (8310); for Degradation of BRD4 in combination with MDM2 ligand [drawing 424]: second drawing (8312)
Source text: A black check mark indicates efficacy of 30% to 70% or higher protein degradation.

BRD3 = target: T2, BRD3 (Homo sapiens, UniProt Q15059); assay: CURE-PRO-mediated BRD3 degradation with MDM2 ligands, Western blot, HCT116 cells; settings: HCT116, 24 h, 1:1, 10 μM
T2 construct: endogenous in cells; host or cells: HCT116
Source text: (§2) Anti-BRD4 (13440, 1:1,000 dilution for Western Blot and 1:25 dilution for ProteinSimple); Anti-BRD2 (5848 1:1,000 dilution for Western Blot and 1:25 dilution for ProteinSimple); β-Actin (3700, 1:2,000 dilution for Western Blot), β-Actin (4970, 1:50 dilution for ProteinSimple) anti-mouse IgG-HRP, and anti-rabbit IgG-HRP antibodies were purchased Cell Signaling Technology. Anti-GAPDH (600-401-A33, 1:100 dilution for ProteinSimple) was purchased from Rockland Immunochemicals, Inc. Anti-BRD3 (sc-81202, 1:200 dilution for Western Blot) was purchased from Santa Cruz Biotechnology.
(§3) HeLa, MCF7, or HCT116 cells (2.5-3×10^6) were treated for 24 hours with the indicated compounds solubilized in DMSO. The cells were washed in ice-cold PBS and were then lysed in RIPA lysis buffer (150 mM NaCl, 5 mM EDTA, 1% NP-40, 0.5% sodium deoxycholate, 0.1% SDS, 50 mM Tris, pH 8.0.) with Roche protease inhibitor complete cocktail and phosphatase inhibitors (10 mM sodium fluoride, 10 mM sodium pyrophosphate, 1 mM sodium orthovanadate and 20 mM β-glycerophosphate). The total protein concentrations were determined by Bradford Protein Assay and 10-20 μg of protein was loaded onto 4-15% Tris-Glycine gradient gels (Biorad). […] Signal was detected with ECL Western Blotting Substrate (Pierce) and X-ray film processed with a Konica SRX-101 X-ray film processor or captured by Bio-Rad's Chemidoc Imaging system. […]

BRD2 = target: T3, BRD2 (Homo sapiens, UniProt P25440); assay: CURE-PRO-mediated BRD2 degradation with MDM2 ligands, Western blot, HCT116 cells; settings: HCT116, 24 h, 1:1, 10 μM
T3 construct: endogenous in cells; host or cells: HCT116
Source text: as §2, §3

T2 sequence (Q15059 whole entry): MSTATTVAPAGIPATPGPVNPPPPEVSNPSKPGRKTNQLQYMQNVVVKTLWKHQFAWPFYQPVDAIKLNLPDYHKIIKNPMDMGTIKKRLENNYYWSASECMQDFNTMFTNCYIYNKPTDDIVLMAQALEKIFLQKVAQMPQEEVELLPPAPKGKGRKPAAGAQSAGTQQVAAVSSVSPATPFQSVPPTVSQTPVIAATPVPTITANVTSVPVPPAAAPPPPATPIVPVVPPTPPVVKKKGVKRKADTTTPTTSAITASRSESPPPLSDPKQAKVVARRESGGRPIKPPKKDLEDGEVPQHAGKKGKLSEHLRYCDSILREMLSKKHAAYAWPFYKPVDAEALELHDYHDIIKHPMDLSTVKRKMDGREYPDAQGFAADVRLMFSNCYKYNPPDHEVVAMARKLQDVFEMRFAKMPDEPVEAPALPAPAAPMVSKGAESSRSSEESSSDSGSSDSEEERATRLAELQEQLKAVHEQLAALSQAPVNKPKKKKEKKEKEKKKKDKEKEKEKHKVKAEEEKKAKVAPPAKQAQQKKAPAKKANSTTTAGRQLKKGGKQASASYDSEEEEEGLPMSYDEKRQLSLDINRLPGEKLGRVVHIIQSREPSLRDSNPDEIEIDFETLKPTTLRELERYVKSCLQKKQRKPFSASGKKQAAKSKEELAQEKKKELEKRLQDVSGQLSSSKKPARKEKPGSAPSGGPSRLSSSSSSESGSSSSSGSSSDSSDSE
T3 sequence (P25440 whole entry): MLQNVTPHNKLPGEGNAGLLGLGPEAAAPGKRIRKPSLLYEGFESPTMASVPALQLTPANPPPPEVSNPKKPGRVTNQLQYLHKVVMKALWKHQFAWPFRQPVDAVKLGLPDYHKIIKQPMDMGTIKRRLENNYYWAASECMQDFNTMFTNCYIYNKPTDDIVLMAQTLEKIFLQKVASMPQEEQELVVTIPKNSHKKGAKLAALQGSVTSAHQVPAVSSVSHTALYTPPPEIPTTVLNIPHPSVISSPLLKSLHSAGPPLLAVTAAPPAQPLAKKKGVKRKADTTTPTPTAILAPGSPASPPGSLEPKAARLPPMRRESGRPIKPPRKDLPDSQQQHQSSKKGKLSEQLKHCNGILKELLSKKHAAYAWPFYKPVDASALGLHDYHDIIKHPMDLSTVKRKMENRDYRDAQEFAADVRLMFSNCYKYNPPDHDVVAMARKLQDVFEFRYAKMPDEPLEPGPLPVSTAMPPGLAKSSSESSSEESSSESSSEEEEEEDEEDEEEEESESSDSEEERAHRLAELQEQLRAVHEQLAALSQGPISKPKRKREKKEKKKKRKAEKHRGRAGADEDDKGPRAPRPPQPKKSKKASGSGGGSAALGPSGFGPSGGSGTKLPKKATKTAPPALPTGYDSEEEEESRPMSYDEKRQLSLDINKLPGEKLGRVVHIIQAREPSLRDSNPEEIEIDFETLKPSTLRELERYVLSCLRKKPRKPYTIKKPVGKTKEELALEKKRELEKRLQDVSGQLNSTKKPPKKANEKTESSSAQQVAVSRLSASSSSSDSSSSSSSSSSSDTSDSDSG

Compound: CCNC(=O)C[C@@H]1N=C(c2ccc(Cl)cc2)c2cc(OCCNC(=O)c3cccc(O)c3O)ccc2-n2c(C)nnc21 [BRD-N25]
- BRD4 degradation, in combination with MDM2 ligand 8310 (BRD4 [1]): caused BRD4 degradation; also recorded: marked BRD4 degradation
- BRD4 degradation, in combination with MDM2 ligand 8312 (BRD4 [1]): caused BRD4 degradation
- Degradation of BRD4 in combination with MDM2 ligand [drawing 423] (BRD4 [2]): ✓ (A black check mark indicates efficacy of 30% to 70% or higher protein degradation)
- Degradation of BRD4 in combination with MDM2 ligand [drawing 424] (BRD4 [2]): ✓ (A black check mark indicates efficacy of 30% to 70% or higher protein degradation)
- BRD3 degradation, in combination with MDM2 ligands 8310 and 8312 (BRD3): degradation of BRD3; also recorded: Degradation is evident
- BRD2 degradation, in combination with MDM2 ligands 8310 and 8312 (BRD2): BRD2 to a lesser extent; also recorded: Degradation is evident

Compound: CCNC(=O)C[C@@H]1N=C(c2ccc(Cl)cc2)c2cc(OCCCCC(=O)Nc3cccc(B(O)O)c3)ccc2-n2c(C)nnc21 [BRD-E20, (3-(5-(((4S)-6-(4-chlorophenyl)-4-(2-(ethylamino)-2-oxoethyl)-1-methyl-4H-benzo[f][1,2,4]triazolo[4,3-a][1,4]diazepin-8-yl)oxy)pentanamido)phenyl)boronic acid]
- BRD4 degradation, in combination with MDM2 ligand 8313 (BRD4 [1]; 1:1 with 8313, 1-10 μM each): had no effect on BRD4 protein levels
- BRD4 degradation, in combination with MDM2 ligand 8314 (BRD4 [1]; 1:1 with 8314, 1-10 μM each): caused partial loss of the BRD4 protein; also recorded: Degradation is observed
- Degradation of BRD4 in combination with CRBN ligand [drawing 372] (BRD4 [2]; Table 1, CRBN ligand, third drawing (8066)): ✓ (A black check mark indicates efficacy of 30% to 70% or higher protein degradation)
- Degradation of BRD4 in combination with CRBN ligand [drawing 370] (BRD4 [2]; Table 1, aromatic 1,2-diol- or hindered cis-1,2-diol-containing CRBN ligand, first drawing (8046)): ✓ (A black check mark indicates efficacy of 30% to 70% or higher protein degradation)
- Degradation of BRD4 in combination with VHL ligand [drawing 397] (BRD4 [2]; Table 3, aromatic 1,2-diol-containing VHL ligand, second drawing (8305)): ✓ (A black check mark indicates efficacy of 30% to 70% or higher protein degradation)

Compound: CCNC(=O)C[C@@H]1N=C(c2ccc(Cl)cc2)c2cc(OCCOCCNC(=O)c3cccc(O)c3O)ccc2-n2c(C)nnc21 [BRD-N39, N-(2-(2-(((4S)-6-(4-chlorophenyl)-4-(2-(ethylamino)-2-oxoethyl)-1-methyl-4H-benzo[f][1,2,4]triazolo[4,3-a][1,4]diazepin-8-yl)oxy)ethoxy)ethyl)-2,3-dihydroxybenzamide]
- BRD4 degradation, in combination with MDM2 ligand 8310 (BRD4 [1]): caused BRD4 degradation
- BRD4 degradation, in combination with MDM2 ligand 8312 (BRD4 [1]): caused BRD4 degradation
- Degradation of BRD4 in combination with CRBN ligand [drawing 407] (BRD4 [2]; Table 4, aryl-boronic acid-containing CRBN ligand, first drawing (by text: 8048)): ✓ (A black check mark indicates efficacy of 30% to 70% or higher protein degradation)
- Degradation of BRD4 in combination with MDM2 ligand [drawing 423] (BRD4 [2]): ✓ (A black check mark indicates efficacy of 30% to 70% or higher protein degradation)
- Degradation of BRD4 in combination with MDM2 ligand [drawing 424] (BRD4 [2]): ✓ (A black check mark indicates efficacy of 30% to 70% or higher protein degradation)
- BRD3 degradation, in combination with MDM2 ligands 8310 and 8312 (BRD3): degradation of BRD3; also recorded: Degradation is evident
- BRD2 degradation, in combination with MDM2 ligands 8310 and 8312 (BRD2): BRD2 to a lesser extent; also recorded: Degradation is evident
